The results in this text go back to patent US20240140938A1, “PREPARATION OF TETRAHYDROINDAZOLE DERIVATIVES AS NOVEL DIACYLGLYCERIDE O-ACYLTRANSFERASE 2 INHIBITORS” (MERCK SHARP & DOHME LLC, priority 2020, published 2024).

Structures are written as SMILES. Where only a bound is given, the exact number is not on record here.

The target in one assay is human DGAT2 (hDGAT2) (Homo sapiens (Human), UniProt Q96PD7). The experiment in a line: DGAT2 Enzymatic Activity Assay. It counts as biochemical. To be noted: hDGAT2 Sf-9 membrane prep; 13C18-triolein product by LC/MS/MS; 25 μM diolein, 5 μM 13C oleoyl-CoA. On the procedure: Sf-9 insect cells were maintained in Grace's insect cell culture medium with 10% heated-inactivated fetal bovine serum, 1% Pluronic F-68 and 0.14 μg/ml Kanamycine sulfate at 27° C. in a shaker incubator. After infection with untagged baculovirus expressing human DGAT2 (hDGAT2) at multiplicity of infection (MOI) 3 for 48 hours, cells were harvested. Cell pellets were suspended in buffer containing 10 mM Tris-HCl pH 7.5, 1 mM EDTA, 250 mM sucrose and Complete Protease Inhibitor Cocktail (Sigma Aldrich), and sonicated on ice. Cell debris were removed by centrifugation at 2000×g for 15 minutes. Membrane fractions were isolated by ultracentrifugation (100,000×g), resuspended in the same buffer, and frozen (−80° C.) for later use. The protein concentration was determined with the Pierce™ BCA Protein Assay Kit (Thermo Fisher Scientific).
human DGAT2 (hDGAT2), sequence (Q96PD7 whole entry): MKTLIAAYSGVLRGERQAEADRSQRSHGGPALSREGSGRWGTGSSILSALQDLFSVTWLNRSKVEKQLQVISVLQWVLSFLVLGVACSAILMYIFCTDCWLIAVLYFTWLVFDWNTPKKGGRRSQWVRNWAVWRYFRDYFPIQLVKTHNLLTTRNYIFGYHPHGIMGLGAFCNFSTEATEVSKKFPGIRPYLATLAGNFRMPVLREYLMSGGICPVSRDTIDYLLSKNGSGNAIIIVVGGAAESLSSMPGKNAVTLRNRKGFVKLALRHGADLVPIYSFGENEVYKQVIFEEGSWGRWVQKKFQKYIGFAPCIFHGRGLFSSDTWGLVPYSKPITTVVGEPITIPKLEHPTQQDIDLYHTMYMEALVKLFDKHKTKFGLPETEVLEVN
LC/MS/MS analyses were performed using Thermal Fisher's LX4-TSQ Vantage system. This system consists of an Agilent binary high-performance liquid chromatography (HPLC) pump and a TSQ Vantage triple quadrupole MS/MS instrument. For each sample, 2 μL samples from the top organic layer of in-plate liquid-liquid extraction were injected onto a Thermo Betabasic C4 column (2.1 mm×20 mm, 5 μm particle size). The samples were then eluted using the following conditions; mobile phase: Isopropanol: acetonitrile/10 mM ammonium formate=50/35/15 (v/v/v), flow rate: 0.8 mL/min, temperature: 25° C. Data was acquired in positive mode using a heated electrospray ionization (HESI) interface. […] The peak area was integrated by Xcalibur Quan software. The ratio between the ^13C18triolein generated in the reaction and spiked in internal standard ^13C21-triolein was used to generate percentage inhibition and IC50 values. Compound percentage inhibition was calculated by the following formula: Inhibition %=1−[(compound response−low control)/(high control−low control)]×100%.
DGAT2 activity was determined by measuring the amount of enzymatic product ^13C18-triolein (^13C-1,2,3-Tri(cis-9-octadecenoyl)glycerol) using the membrane prep mentioned above. The assay was carried out in ABgene 384-well assay plates in a final volume of 25 μL at rt.
Turning to `CC(C)n1nc(-c2cccc(OC(F)F)c2)c2c1C[C@H](C(=O)N[C@@H](C)CO)CC2` [Example 65, (R)-3-(3-(difluoromethoxy)phenyl)-N-((S)-1-hydroxypropan-2-yl)-1-isopropyl-4,5,6,7-tetrahydro-1H-indazole-6-carboxamide], inhibition was half-maximal at 7260 nM (IC50). In other words, the single-digit micromolar range.

`C[C@]1(NC(=O)[C@H]2Cc3c(c(-c4cccc(OC(F)F)c4)nn3C3CCOCC3)C(F)(F)C2)CCS(=O)(=O)C1` (single isomer, unassigned) [Example 117b] displayed an IC50 of 178 nM.

With `CC(C1CC1)n1nc(-c2cc(OC(F)F)ccc2F)c2c1C[C@H](C(=O)NC1(C)CS(=O)(=O)C1)CC2` (single isomer, unassigned) [Example 58b], the midpoint of inhibition, the IC50, lay at 2.5 nM.

As for `CC(n1nc(-c2cc(OCC(F)(F)F)ncc2F)c2c1C[C@H](C(=O)N[C@@]1(C)CCS(=O)(=O)C1)CC2)C(C)(C)O` (single isomer, unassigned) [Example 112a], the IC50 was found to be 11.3 nM. This IC50 is about 4.5-fold higher than that of the compound before.

Turning to `CC(C)n1nc(-c2cc(OC(F)F)cnc2C(F)F)c2c1C[C@H](C(=O)NC1(C)CCS(=O)(=O)CC1)CC2` [Example 42, (R)-3-(5-(difluoromethoxy)-2-(difluoromethyl)pyridin-3-yl)-1-isopropyl-N-(4-methyl-1,1-dioxidotetrahydro-2H-thiopyran-4-yl)-4,5,6,7-tetrahydro-1H-indazole-6-carboxamide], the IC50 was found to be 296 nM.

Compound `CC(n1nc(-c2cccc(OC(F)F)c2)c2c1C[C@H](C(=O)NC1(C)CCS(=O)(=O)CC1)CC2)C(C)(C)O` (single isomer, unassigned) [Example 111a] registered an IC50 of 2070 nM.

Turning to `CC(C)n1nc(-c2cc(C3CC3)ccc2F)c2c1C[C@H](C(=O)NC1(C)CS(=O)(=O)C1)OC2` [Example 128, (R)-3-(5-cyclopropyl-2-fluorophenyl)-1-isopropyl-N-(3-methyl-1,1-dioxidothietan-3-yl)-1,4,6,7-tetrahydropyrano[4,3-c]pyrazole-6-carboxamide], the IC50 is 320 nM. Compared with the last compound, the IC50 is about 6.5-fold lower.

For the compound `C[C@]1(NC(=O)[C@@H]2CCc3c(-c4cccc(C5(F)CC5)c4)nn(-c4ccc(F)cc4)c3C2)CCS(=O)(=O)C1` [Example 17, (R)-3-(3-(1-fluorocyclopropyl)phenyl)-1-(4-fluorophenyl)-N-((S)-3-methyl-1,1-dioxidotetrahydrothiophen-3-yl)-4,5,6,7-tetrahydro-1H-indazole-6-carboxamide], half-maximal inhibition (IC50) required 70.7 nM. Compared with the last compound, the IC50 is about 4.5-fold lower.

In the case of `C[C@]1(NC(=O)C2CCc3c(-c4cncc(OC(F)F)c4)nn(-c4nnc(C5CC5)s4)c3C2)CCS(=O)(=O)C1` (stereo partly drawn) [Example 5, 1-(5-cyclopropyl-1,3,4-thiadiazol-2-yl)-3-(5-(difluoromethoxy)pyridin-3-yl)-N-((S)-3-methyl-1,1-dioxidotetrahydrothiophen-3-yl)-4,5,6,7-tetrahydro-1H-indazole-6-carboxamide], 542 nM corresponded to half-maximal inhibition (IC50). This IC50 is about 7.7-fold higher than that of the compound before.

On to `CC(n1nc(-c2cc(OCC(F)(F)F)ncc2F)c2c1C[C@H](C(=O)NC1(C#N)CCS(=O)(=O)CC1)CC2)C(C)(C)O` (single isomer, unassigned) [Example 113b], for which the IC50 amounted to 70.3 nM.

As to `CC(C)n1nc(-c2cc(OC(F)F)ccc2F)c2c1C[C@H](C(=O)NC1(C)CCN(C(=O)C3CC3)C1)CC2` (stereo partly drawn) [Example 61, (6R)-N-(1-(cyclopropanecarbonyl)-3-methylpyrrolidin-3-yl)-3-(5-(difluoromethoxy)-2-fluorophenyl)-1-isopropyl-4,5,6,7-tetrahydro-1H-indazole-6-carboxamide], half-maximal inhibition (IC50) required 26.2 nM.

Turning to `CC(C)n1nc(-c2cc(OC3CC3)ccc2F)c2c1C[C@H](C(=O)NC1(C)CS(=O)(=O)C1)CC2` [Example 85, (R)-3-(5-cyclopropoxy-2-fluorophenyl)-1-isopropyl-N-(3-methyl-1,1-dioxidothietan-3-yl)-4,5,6,7-tetrahydro-1H-indazole-6-carboxamide], half-maximal inhibition (IC50) required 15.6 nM.

`CC(C)n1nc(-c2cc(OC(F)F)ccc2Cl)c2c1C[C@H](C(=O)NC1(C)CS(=O)(=O)C1)CC2` [Example 84, (R)-3-(2-chloro-5-(difluoromethoxy)phenyl)-1-isopropyl-N-(3-methyl-1,1-dioxidothietan-3-yl)-4,5,6,7-tetrahydro-1H-indazole-6-carboxamide] returned an IC50 of 7.92 nM.

Turning to `CC(C)n1nc(-c2cc(C(C)(F)F)ncc2F)c2c1C[C@H](C(=O)NC1(C)CCS(=O)(=O)CC1)CC2` [Example 92, (R)-3-(2-(1,1-difluoroethyl)-5-fluoropyridin-4-yl)-1-isopropyl-N-(4-methyl-1,1-dioxidotetrahydro-2H-thiopyran-4-yl)-4,5,6,7-tetrahydro-1H-indazole-6-carboxamide], inhibition was half-maximal at 1210 nM (IC50).

Compound `CC(C)n1nc(-c2cccc(S(C)(=O)=O)c2)c2c1C[C@H](C(=O)NC1(C)CS(=O)(=O)C1)CC2` [Example 98, (R)-1-isopropyl-N-(3-methyl-1,1-dioxidothietan-3-yl)-3-(3-(methylsulfonyl)phenyl)-4,5,6,7-tetrahydro-1H-indazole-6-carboxamide] gave an IC50 of more than 10000 nM.

`CC(C1CC1)n1nc(-c2cc(OC(F)F)ccc2F)c2c1C[C@H](C(=O)NC1(C)CS(=O)(=O)C1)CC2` (single isomer, unassigned) [Example 58a] registered an IC50 of 23.4 nM.

`CC1(NC(=O)[C@@H]2CCc3c(-c4cccc(OC(F)F)c4)nn(-c4ccc(F)cn4)c3C2)CS(=O)(=O)C1` [Example 4, (R)-3-(3-(difluoromethoxy)phenyl)-1-(5-fluoropyridin-2-yl)-N-(3-methyl-1,1-dioxidothietan-3-yl)-4,5,6,7-tetrahydro-1H-indazole-6-carboxamide] gave an IC50 of 5.1 nM.

As for `CC(C)n1nc(-c2cc(OCC(F)F)ncc2F)c2c1C[C@H](C(=O)NC1(C)CCS(=O)(=O)CC1)CC2` [Example 40, (R)-3-(2-(2,2-difluoroethoxy)-5-fluoropyridin-4-yl)-1-isopropyl-N-(4-methyl-1,1-dioxidotetrahydro-2H-thiopyran-4-yl)-4,5,6,7-tetrahydro-1H-indazole-6-carboxamide], the midpoint of inhibition, the IC50, lay at 4.6 nM. This IC50 and that of the compound before are within 1.5-fold of each other.

Compound `N#CC1(NC(=O)[C@@H]2CCc3c(-c4cncc(OC(F)F)c4)nn(-c4ccc(F)cn4)c3C2)CCOC1` (single isomer, unassigned) [Example 15a] displayed an IC50 of 17.4 nM.

`CC(n1nc(-c2cc(OC(F)F)ccc2F)c2c1C[C@H](C(=O)NC1(C)CS(=O)(=O)C1)CC2)C(C)(C)O` (single isomer, unassigned) [Example 110b] registered an IC50 of 243 nM.

In turn, `C[C@]1(NC(=O)[C@@H]2CCc3c(-c4cccc(OC(F)F)c4)nn(C4CCS(=O)(=O)CC4)c3C2)CCS(=O)(=O)C1` [Example 24, (R)-3-(3-(difluoromethoxy)phenyl)-1-(1,1-dioxidotetrahydro-2H-thiopyran-4-yl)-N-((S)-3-methyl-1,1-dioxidotetrahydrothiophen-3-yl)-4,5,6,7-tetrahydro-1H-indazole-6-carboxamide] yielded an IC50 of 144 nM.

In the case of `CCOc1cc(-c2nn(C(C)C)c3c2CC[C@@H](C(=O)NC2(C)CCS(=O)(=O)CC2)C3)c(F)cn1` [Example 22, (R)-3-(2-ethoxy-5-fluoropyridin-4-yl)-1-isopropyl-N-(4-methyl-1,1-dioxidotetrahydro-2H-thiopyran-4-yl)-4,5,6,7-tetrahydro-1H-indazole-6-carboxamide], the IC50 was determined as 144 nM. That is a sub-micromolar value.

Take `C[C@]1(NC(=O)[C@@H]2CCc3c(-c4cncc(OC(F)F)c4)nn(-c4ccc(F)cn4)c3C2)CCS(=O)(=O)C1` [Example 14, (R)-3-(5-(difluoromethoxy)pyridin-3-yl)-1-(5-fluoropyridin-2-yl)-N-((S)-3-methyl-1,1-dioxidotetrahydrothiophen-3-yl)-4,5,6,7-tetrahydro-1H-indazole-6-carboxamide]: the midpoint of inhibition, the IC50, lay at 13.9 nM. This IC50 lies about 10-fold lower than the previous one.

Take `CC(C)n1nc(-c2cc(C3CC3)ccc2F)c2c1C[C@H](C(=O)NC1(C)CS(=O)(=O)C1)CC2` [Example 83, (R)-3-(5-cyclopropyl-2-fluorophenyl)-1-isopropyl-N-(3-methyl-1,1-dioxidothietan-3-yl)-4,5,6,7-tetrahydro-1H-indazole-6-carboxamide]: 46 nM corresponded to half-maximal inhibition (IC50).

The assay is the same for the next values; noted with them: unit given as nm; hDGAT2 Sf-9 membrane prep; 13C18-triolein product by LC/MS/MS.
In turn, `CC1(NC(=O)[C@@H]2CCc3c(-c4cc(OC(F)F)ccc4F)nn(S(C)(=O)=O)c3C2)CS(=O)(=O)C1` [Example 115, (R)-3-(5-(difluoromethoxy)-2-fluorophenyl)-N-(3-methyl-1,1-dioxidothietan-3-yl)-1-(methylsulfonyl)-4,5,6,7-tetrahydro-1H-indazole-6-carboxamide] displayed an IC50 of 108 nM.

As a reminder, the IC50 is the concentration that gives 50% inhibition. Low readings indicate greater potency, high ones weaker potency.
